The record followed here is patent US20090069319A1, “IMIDAZOPYRIDINE ANALOGS AND THEIR USE AS AGONISTS OF THE WNT-BETA-CATENIN CELLULAR MESSAGING SYSTEM” (Wyeth, priority 2007, published 2009).

The test is described as follows: Functional Dkk1-LRP5-TCF-Luciferase Assay in U2OS Cells (table columns: A=MAX FOLD Induction/DMSO CONTROL; B=fold induction @ 2.0 uM; C=fold induction @ 20.0 uM). In kind it is cell-based, Human. The following applies: Homo sapiens, U2OS; for fold induction at 2 µM: 2.0 uM compound; for fold induction at 20 µM: 20.0 uM compound. The method in brief: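 U2OS cells co-transfected with 16×TCF-TK-firefly luciferase, TK-Renilla control, Wnt3a and Dkk1, then frozen; thawed cells (~5,000/well, ~5% FBS, phenol red-free RPMI) incubated ~20 h at 37° C. with compound (0.25% DMSO). Firefly luminescence (Bright-Glo) normalized to DMSO mean as fold induction.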

Usually fold induction stands for the signal under treatment as a multiple of the control signal. As to `O=C(N1CCOCC1)N1CCC(n2cnc3c(-c4ccc5ccccc5c4)ccnc32)CC1` [3-[1-(morpholin-4-ylcarbonyl)piperidin-4-yl]-7-(2-naphthyl)-3H-imidazo[4,5-b]pyridine], the fold induction at 2 µM was 1.08 and the fold induction at 20 µM worked out at 1.25. Take `Cc1ccc(CCn2cnc3c(-c4ccc5ccccc5c4)ccnc32)cc1` [3-[2-(4-methylphenyl)ethyl]-7-(2-naphthyl)-3H-imidazo[4,5-b]pyridine]: the fold induction at 2 µM was found to be 0.76 and the fold induction at 20 µM amounted to 0.98. On the same counts, the results for `O=[N+]([O-])c1ccc(O)cc1-c1nc2c(-c3ccc4ccccc4c3)ccnc2n1C1CCNCC1` [3-[7-(2-naphthyl)-3-piperidin-4-yl-3H-imidazo[4,5-b]pyridin-2-yl]-4-nitrophenol] are 1.4 and 0.98. As for `Oc1cccc(-c2nc3c(-c4ccc5ccccc5c4)ccnc3n2C2CCNCC2)c1O` [3-[7-(2-naphthyl)-3-piperidin-4-yl-3H-imidazo[4,5-b]pyridin-2-yl]benzene-1,2-diol], the fold induction at 2 µM worked out at 1.33. On the same count and under the same terms, next, `Oc1cccc(-c2nc3c(-c4ccc5ccccc5c4)ccnc3n2C2CCNCC2)c1` [3-[7-(2-naphthyl)-3-piperidin-4-yl-3H-imidazo[4,5-b]pyridin-2-yl]phenol]: 1.58; `c1ccc2cc(-c3ccnc4c3nc(-c3cnc5ccccc5c3)n4C3CCNCC3)ccc2c1` [3-[7-(2-naphthyl)-3-piperidin-4-yl-3H-imidazo[4,5-b]pyridin-2-yl]quinoline]: 1.44.

Take `Cc1nc2c(-c3ccc4ccccc4c3)ccnc2n1C1CNC1` [3-azetidin-3-yl-2-methyl-7-(2-naphthyl)-3H-imidazo[4,5-b]pyridine]: the fold induction at 2 µM was determined as 1.16 and the fold induction at 20 µM worked out at 0.76. The like results for `c1ccc2cc(-c3ccnc4c3ncn4C3CNC3)ccc2c1` [3-azetidin-3-yl-7-(2-naphthyl)-3H-imidazo[4,5-b]pyridine] were, in that order, 1.49 and 1.25. As for `c1ccc2cc(-c3cnc4c(c3)nc(-c3ccnc5ccccc35)n4C3CCNCC3)ccc2c1` [4-[6-(2-naphthyl)-3-piperidin-4-yl-3H-imidazo[4,5-b]pyridin-2-yl]quinoline], the fold induction at 2 µM is 1.81.

For `c1ccc(N(c2ccccc2)c2ccc(-c3nc4c(-c5ccc6ccccc6c5)ccnc4n3C3CCNCC3)cc2)cc1` [4-[7-(2-naphthyl)-3-piperidin-4-yl-3H-imidazo[4,5-b]pyridin-2-yl]-N,N-diphenylaniline], the fold induction at 2 µM was found to be 1.89.

Consider `N#Cc1ccc(-c2nc3c(-c4ccc5ccccc5c4)ccnc3n2C2CCNCC2)cc1` [4-[7-(2-naphthyl)-3-piperidin-4-yl-3H-imidazo[4,5-b]pyridin-2-yl]benzonitrile], for which the fold induction at 2 µM is 1.58.

On to `Oc1ccc(-c2nc3c(-c4ccc5ccccc5c4)ccnc3n2C2CCNCC2)cc1` [4-[7-(2-naphthyl)-3-piperidin-4-yl-3H-imidazo[4,5-b]pyridin-2-yl]phenol], for which the fold induction at 2 µM is 1.3. `c1ccc2cc(-c3ccnc4c3nc(-c3ccnc5ccccc35)n4C3CCNCC3)ccc2c1` [4-[7-(2-naphthyl)-3-piperidin-4-yl-3H-imidazo[4,5-b]pyridin-2-yl]quinoline]: the fold induction at 2 µM came out at 1.07. Still for that read-out and setting: for `c1ccc2cc(-c3ccc4ncn(C5CCNCC5)c4n3)ccc2c1` [5-(2-naphthyl)-3-piperidin-4-yl-3H-imidazo[4,5-b]pyridine] the value was 0.32; for `c1ccc2cc(-c3cnc4c(c3)nc(-c3cccc5ncccc35)n4C3CCNCC3)ccc2c1` [5-[6-(2-naphthyl)-3-piperidin-4-yl-3H-imidazo[4,5-b]pyridin-2-yl]quinoline], 1.29. Turning to `O=c1[nH]cc(-c2nc3c(-c4ccc5ccccc5c4)ccnc3n2C2CCNCC2)c(=O)[nH]1` [5-[7-(2-naphthyl)-3-piperidin-4-yl-3H-imidazo[4,5-b]pyridin-2-yl]pyrimidine-2,4(1H,3H)-dione], the fold induction at 2 µM came to 1.94 and the fold induction at 20 µM stood at 1.91. In the case of `c1ccc2cc(-c3ccnc4c3nc(-c3cccc5ncccc35)n4C3CCNCC3)ccc2c1` [5-[7-(2-naphthyl)-3-piperidin-4-yl-3H-imidazo[4,5-b]pyridin-2-yl]quinoline], the fold induction at 2 µM amounted to 1.33. As to `O=[N+]([O-])c1ccccc1-c1nc2cc(-c3ccc4ccccc4c3)cnc2n1C1CCNCC1` [6-(2-naphthyl)-2-(2-nitrophenyl)-3-piperidin-4-yl-3H-imidazo[4,5-b]pyridine], the fold induction at 2 µM turned out to be 1.13.

With `O=[N+]([O-])c1cccc(-c2nc3cc(-c4ccc5ccccc5c4)cnc3n2C2CCNCC2)c1` [6-(2-naphthyl)-2-(3-nitrophenyl)-3-piperidin-4-yl-3H-imidazo[4,5-b]pyridine], the fold induction at 2 µM is 1.3. Still for that read-out and setting: for `c1ccc(-c2nc3cc(-c4ccc5ccccc5c4)cnc3n2C2CCNCC2)cc1` [6-(2-naphthyl)-2-phenyl-3-piperidin-4-yl-3H-imidazo[4,5-b]pyridine] the value was 1.6; for `c1csc(-c2nc3cc(-c4ccc5ccccc5c4)cnc3n2C2CCNCC2)c1` [6-(2-naphthyl)-3-piperidin-4-yl-2-(2-thienyl)-3H-imidazo[4,5-b]pyridine], 1.04. `CCCc1nc2cc(-c3ccc4ccccc4c3)cnc2n1C1CCNCC1` [6-(2-naphthyl)-3-piperidin-4-yl-2-propyl-3H-imidazo[4,5-b]pyridine]: the fold induction at 2 µM amounted to 1.38 and the fold induction at 20 µM stood at 0.01. For the compound `c1ccc(-c2nc3cc(-c4ccc5ccccc5c4)cnc3n2C2CCNCC2)nc1` [6-(2-naphthyl)-3-piperidin-4-yl-2-pyridin-2-yl-3H-imidazo[4,5-b]pyridine], the fold induction at 2 µM stood at 1.6 and the fold induction at 20 µM was 0.005. Regarding `c1ccc2cc(-c3cnc4c(c3)nc(-c3ccncc3)n4C3CCNCC3)ccc2c1` [6-(2-naphthyl)-3-piperidin-4-yl-2-pyridin-4-yl-3H-imidazo[4,5-b]pyridine], the fold induction at 2 µM was determined as 1.56 and the fold induction at 20 µM was 0.005. Regarding `c1ccc2cc(-c3cnc4c(c3)ncn4C3CCNCC3)ccc2c1` [6-(2-naphthyl)-3-piperidin-4-yl-3H-imidazo[4,5-b]pyridine], the fold induction at 2 µM came out at 1.53.

Regarding `[O-][n+]1ccc(-c2nc3c(-c4ccc5ccccc5c4)ccnc3n2C2CCNCC2)cc1` [7-(2-naphthyl)-2-(1-oxidopyridin-4-yl)-3-piperidin-4-yl-3H-imidazo[4,5-b]pyridine], the fold induction at 2 µM turned out to be 1.45 and the fold induction at 20 µM is 0.06. For the compound `O=[N+]([O-])c1ccccc1-c1nc2c(-c3ccc4ccccc4c3)ccnc2n1C1CCNCC1` [7-(2-naphthyl)-2-(2-nitrophenyl)-3-piperidin-4-yl-3H-imidazo[4,5-b]pyridine], the fold induction at 2 µM came out at 1.14. The same measure, in the same setting: next, `O=[N+]([O-])c1cccc(-c2nc3c(-c4ccc5ccccc5c4)ccnc3n2C2CCNCC2)c1` [7-(2-naphthyl)-2-(3-nitrophenyl)-3-piperidin-4-yl-3H-imidazo[4,5-b]pyridine]: 1.29; `c1ccc(Oc2cccc(-c3nc4c(-c5ccc6ccccc6c5)ccnc4n3C3CCNCC3)c2)cc1` [7-(2-naphthyl)-2-(3-phenoxyphenyl)-3-piperidin-4-yl-3H-imidazo[4,5-b]pyridine]: 1.4; `O=[N+]([O-])c1ccc(-c2nc3c(-c4ccc5ccccc5c4)ccnc3n2C2CCNCC2)cc1` [7-(2-naphthyl)-2-(4-nitrophenyl)-3-piperidin-4-yl-3H-imidazo[4,5-b]pyridine]: 1.42. In the case of `O=[N+]([O-])c1ccc(-c2nc3c(-c4ccc5ccccc5c4)ccnc3n2C2CCNCC2)s1` [7-(2-naphthyl)-2-(5-nitro-2-thienyl)-3-piperidin-4-yl-3H-imidazo[4,5-b]pyridine], the fold induction at 2 µM is 1.83 and the fold induction at 20 µM was 0.01. On the same counts, the results for `c1ccc(-c2nc3c(-c4ccc5ccccc5c4)ccnc3n2C2CCNCC2)cc1` [7-(2-naphthyl)-2-phenyl-3-piperidin-4-yl-3H-imidazo[4,5-b]pyridine] are 1.23 and 0.05. For `O=C(N1CCC(n2cnc3c(-c4ccc5ccccc5c4)ccnc32)CC1)C(F)(F)F` [7-(2-naphthyl)-3-[1-(trifluoroacetyl)piperidin-4-yl]-3H-imidazo[4,5-b]pyridine], the fold induction at 2 µM came out at 1.58 and the fold induction at 20 µM was 0.39.

`O=c1[nH]c2c(-c3ccc4ccccc4c3)ccnc2n1C1CCNCC1` [7-(2-naphthyl)-3-piperidin-4-yl-1,3-dihydro-2H-imidazo[4,5-b]pyridin-2-one]: the fold induction at 2 µM is 1.29 and the fold induction at 20 µM amounted to 0.04.

Consider `c1c[nH]c(-c2nc3c(-c4ccc5ccccc5c4)ccnc3n2C2CCNCC2)c1` [7-(2-naphthyl)-3-piperidin-4-yl-2-(1H-pyrrol-2-yl)-3H-imidazo[4,5-b]pyridine], for which the fold induction at 2 µM is 1.25. Regarding `c1csc(-c2nc3c(-c4ccc5ccccc5c4)ccnc3n2C2CCNCC2)c1` [7-(2-naphthyl)-3-piperidin-4-yl-2-(2-thienyl)-3H-imidazo[4,5-b]pyridine], the fold induction at 2 µM was 1.22 and the fold induction at 20 µM stood at 0.04. `c1ccc2cc(-c3ccnc4c3nc(-c3ccsc3)n4C3CCNCC3)ccc2c1` [7-(2-naphthyl)-3-piperidin-4-yl-2-(3-thienyl)-3H-imidazo[4,5-b]pyridine]: the fold induction at 2 µM came out at 1.17 and the fold induction at 20 µM came out at 0.01. Turning to `C=Cc1cccc(-c2nc3c(-c4ccc5ccccc5c4)ccnc3n2C2CCNCC2)c1` [7-(2-naphthyl)-3-piperidin-4-yl-2-(3-vinylphenyl)-3H-imidazo[4,5-b]pyridine], the fold induction at 2 µM came to 1.44.
